# Data reported in paper PMC10313921, “A living ex vivo platform for functional, personalized brain cancer diagnosis” (Cell Reports Medicine, 2023).
# Tests used:
# [1] = tested on: SE-I patient tumor tissue (WHO I subependymoma); assay: Drug screening of uncultured patient tumor tissue SE-I on OBSCs; type: cell-based; conditions: Homo sapiens; for EC90: dose required to kill 90% of the tumor
# Procedure: (§1) Tumor cells were seeded onto OBSCs 2h after slicing as described above. One day after tumor seeding, six concentrations of each drug were diluted in the media underneath each culture insert, or XRad was applied using an X-Rad 320 Precision X-ray machine (n = 4 tumor foci per concentration; n ≥ 24 tumor foci per drug per cell line). Three days after treatment, the bioluminescence of live tumor cells was measured using an AMI optical imager (Spectral Instruments) and dose-response curves were generated. Tumor survival was normalized to day one tumor fluorescence and compared to an untreated control group.
# (§2) To engraft onto OBSCs, the cryopreserved/thawed or fresh brain tumor tissue was filtered through a 100 μm cell strainer. Each 50 mg of tissue was transfected with 1mL mcherry-FLuc Lentivirus at 1.5e7 vg/ml with 1μL polybrene for 4h at 37°C. After incubation, the brain tumor tissue was washed with PBS three times to remove the residual virus and reconstituted in PBS with a final volume of 150 μL. […] The viability of the patient tissue was measured by an AMI optical imaging system with the addition of 1.5 mg/mL luciferin underneath the culture insert. […]
# (§3) For DSS parameters 1–6, therapeutic windows were calculated by comparing OBSC toxicity and tumor response at the doses where tumor kill passed through the DSS parameter (Table S1 and S3). For DSS parameter 7, the therapeutic window was calculated by comparing the slopes through the tumor EC50 and the OBSC tox EC50. For DSS parameter 8, the therapeutic window was calculated by comparing the areas under tumor kill and OBSC tox curves. Normalized therapeutic window ratios for DSS parameters 1–8 within each drug-tumor-OBSC interaction were calculated in the following manner: within each window, values ranged from +1 to −1, where values approaching +1 signify increasing tumor kill relative to normal tissue toxicity, and values approaching −1 indicate agents where tumors remained highly viable while toxicity to the normal OBSC tissue was elevated. […]
# [2] = tested on: PGBM-R patient tumor tissue (recurrent tumor from same patient as PGBM); assay: Drug screening of uncultured patient tumor tissue PGBM-R on OBSCs; type: cell-based, human; conditions: for increase of DSS in the recurrent tumor: PGBM-R relative to PGBM; for EC90: Homo sapiens, PGBM-R on OBSCs, dose required to kill 90% of the tumor
# Procedure: as §1
# (§4) To engraft onto OBSCs, the cryopreserved/thawed or fresh brain tumor tissue was filtered through a 100 μm cell strainer. Each 50 mg of tissue was transfected with 1mL mcherry-FLuc Lentivirus at 1.5e7 vg/ml with 1μL polybrene for 4h at 37°C. After incubation, the brain tumor tissue was washed with PBS three times to remove the residual virus and reconstituted in PBS with a final volume of 150 μL. Then the tissue solution was engrafted atop OBSCs at ∼0.5 mg tissue in 3 μL of PBS on each hemisphere of the slice. The OBSC engrafted with patient tumor tissue was incubated at 37°C with 5% CO2 and 95% humidity. The BSM was changed after 24h and subsequently every 3 days. Tumor treatment studies were executed as described above for tumor lines. The viability of the patient tissue was measured by an AMI optical imaging system with the addition of 1.5 mg/mL luciferin underneath the culture insert.
# (§5) Several weighted parameters were factored into an overall drug sensitivity score.
# (§6) For DSS parameters 1–6, therapeutic windows were calculated by comparing OBSC toxicity and tumor response at the doses where tumor kill passed through the DSS parameter (Table S1 and S3). For DSS parameter 7, the therapeutic window was calculated by comparing the slopes through the tumor EC50 and the OBSC tox EC50. For DSS parameter 8, the therapeutic window was calculated by comparing the areas under tumor kill and OBSC tox curves. Normalized therapeutic window ratios for DSS parameters 1–8 within each drug-tumor-OBSC interaction were calculated in the following manner: within each window, values ranged from +1 to −1, where values approaching +1 signify increasing tumor kill relative to normal tissue toxicity, and values approaching −1 indicate agents where tumors remained highly viable while toxicity to the normal OBSC tissue was elevated. DSS parameters 9–11 were determined based on the behavior of the tumor in response to the drug, as defined above.
# (§7) All individually weighed parameters were added together to generate the DSS. Overall DSS from 0 to 100 signify increasing efficacy in tumor kill relative to OBSC toxicity, while scores from 0 to −100 describe scenarios in which tumors thrive more effectively than OBSCs for a given treatment. Dose-response values were calculated via linear interpolation of raw data, not from best-fit curve equations.
# [3] = tested on: MG-I patient tumor tissue (WHO I meningioma); assay: Drug screening of uncultured patient tumor tissue MG-I on OBSCs; type: cell-based; conditions: Homo sapiens, dose required to kill 90% of the tumor
# Procedure: as §1
# (§8) To engraft onto OBSCs, the cryopreserved/thawed or fresh brain tumor tissue was filtered through a 100 μm cell strainer. […] The viability of the patient tissue was measured by an AMI optical imaging system with the addition of 1.5 mg/mL luciferin underneath the culture insert. […]
# (§9) For DSS parameters 1–6, therapeutic windows were calculated by comparing OBSC toxicity and tumor response at the doses where tumor kill passed through the DSS parameter (Table S1 and S3). For DSS parameter 7, the therapeutic window was calculated by comparing the slopes through the tumor EC50 and the OBSC tox EC50. For DSS parameter 8, the therapeutic window was calculated by comparing the areas under tumor kill and OBSC tox curves. […]
# [4] = tested on: MG-II patient tumor tissue (WHO grade II meningioma); assay: Drug screening of uncultured patient tumor tissue MG-II on OBSCs; type: cell-based; conditions: Homo sapiens; for EC90: dose required to kill 90% of the tumor
# Procedure: as §1, §4, §5, §6, §7
# [5] = tested on: LBM patient tumor tissue (Stage III NSCLC adenocarcinoma); assay: Drug screening of uncultured patient tumor tissue LBM on OBSCs; type: cell-based; conditions: Homo sapiens; for EC90: dose required to kill 90% of the tumor
# Procedure: as §1, §2, §3
# [6] = tested on: ODDG patient tumor tissue (WHO grade III oligodendroglioma); assay: Drug screening of uncultured patient tumor tissue ODDG on OBSCs; type: cell-based; conditions: Homo sapiens
# Procedure: as §1, §8, §9
# [7] = tested on: GBM-MG patient tumor tissue (GBM w/ WHO I meningioma); assay: Drug screening of uncultured patient tumor tissue GBM-MG on OBSCs; type: cell-based; conditions: Homo sapiens, dose required to kill 90% of the tumor
# Procedure: as §1, §8, §9
# [8] = dose required to kill 50% of the tumor
SMILES,EC90 [1],increase of DSS in the recurrent tumor [2],EC90 [3],EC90 [4],EC90 [5],EC90 [2],further results
Nc1ncn([C@@H]2O[C@H](CO)[C@@H](O)[C@H]2O)c(=O)n1 [Azacitidine],> 10 µM,96 points,> 10 µM,–,–,–,–
Nc1ccn([C@@H]2O[C@H](CO)[C@@H](O)C2(F)F)c(=O)n1 [Gemcitabine],–,–,–,> 10 µM,–,–,–
O=NN(CCCl)C(=O)NC1CCCCC1 [Lomustine],–,–,–,–,> 10 µM,–,–
Cn1nnc2c(C(N)=O)ncn2c1=O [Temozolomide],> 10 µM,–,> 10 µM,> 10 µM,> 10 µM,> 10 µM,"EC50 [1, 8]: > 100 µM; DSS (drug sensitivity score) ([2]; PGBM-R patient tissue, scale -100 to +100): 17; EC50 [6, 8]: > 100 µM; EC90 ([6]; dose required to kill 90% of the tumor): > 10 µM; EC90 [7]: > 10 µM; EC50 [5, 8]: > 100 µM; EC50 [4, 8]: > 100 µM"
CC(=O)Nc1cccc(-n2c(=O)n(C3CC3)c(=O)c3c(Nc4ccc(I)cc4F)n(C)c(=O)c(C)c32)c1 [Trametinib],–,58 points,–,> 10 µM,–,> 10 µM,–
CC[C@]1(O)C[C@H]2CN(CCc3c([nH]c4ccccc34)[C@@](C(=O)OC)(c3cc4c(cc3OC)N(C=O)[C@H]3[C@@](O)(C(=O)OC)[C@H](OC(C)=O)[C@]5(CC)C=CCN6CC[C@]43[C@@H]65)C2)C1 [Vincristine],–,–,–,> 10 µM,–,–,–
